The values below are quoted from earlier work in US7378418B2, “Azabicyclic heterocycles as cannabinoid receptor modulators” (Bristol-Myers Squibb Company, priority 2003, dated 2008).

One data set relates to human subjects. As to conditions: 16 week trial period, published Phase IIb data.
For data set [1] the following is noted: chronic administration for two weeks (Hildebrandt et al. 2003).

For the compound `Cc1c(C(=O)NN2CCCCC2)nn(-c2ccc(Cl)cc2Cl)c1-c1ccc(Cl)cc1` [SR-141716], the body weight result with human subjects is given as “dose-dependently reduced body weight”. Turning to `Cc1c(C(=O)NN2CCCCC2)nn(-c2ccc(Cl)cc2Cl)c1-c1ccc(I)cc1` [AM-251], the body weight entry in data set [1] was “substantial body weight reduction”.
